Assay results reported in PubChem BioAssay (NCI).
Values after ≈ are worked out from the molar mass of the structure shown.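 Exposure lasted 48 hours, with cells grown in 96-well plates and compounds tested at five concentrations. GI50 marks 50% less growth. TGI marks complete inhibition of growth.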

Legend:
Experiment in all cases: DTP human tumour cell line panel, 48 h
IGROV1 ovarian = system: IGROV1 ovarian
OVCAR-5 ovarian = system: OVCAR-5 ovarian
UO-31 renal = system: UO-31 renal
DU-145 prostate = system: DU-145 prostate
SK-MEL-28 melanoma = system: SK-MEL-28 melanoma
SNB-75 CNS = system: SNB-75 CNS
SF-295 CNS = system: SF-295 CNS
PC-3 prostate = system: PC-3 prostate
CAKI-1 renal = system: CAKI-1 renal
SK-OV-3 ovarian = system: SK-OV-3 ovarian

`O=C1NN(C2=NNC3(C(=O)N2)c2ccccc2-c2ccccc23)C(c2ccccc2)=N/C1=C/c1ccc(Cl)cc1` was tested, and the GI50 (IGROV1 ovarian) was 60.5 µg/mL (≈ 111 µM), the TGI (IGROV1 ovarian) was over 150 µg/mL and the GI50 (OVCAR-5 ovarian) was 132 µg/mL (≈ 242 µM). It also gave a TGI (OVCAR-5 ovarian) of over 150 µg/mL, a GI50 (UO-31 renal) of 48 µg/mL (≈ 88 µM) and a TGI (UO-31 renal) of over 150 µg/mL. The GI50 (DU-145 prostate) was 89.1 µg/mL (≈ 164 µM), the TGI (DU-145 prostate) was over 150 µg/mL and the GI50 (SK-MEL-28 melanoma) was 63 µg/mL (≈ 116 µM). The TGI (SK-MEL-28 melanoma) was over 150 µg/mL, the GI50 (SNB-75 CNS) was 57.2 µg/mL (≈ 105 µM) and the TGI (SNB-75 CNS) was over 150 µg/mL. The GI50 (SF-295 CNS) was 30.7 µg/mL (≈ 56.3 µM), the TGI (SF-295 CNS) was 73.9 µg/mL and the GI50 (PC-3 prostate) was 44.7 µg/mL (≈ 82.1 µM). The TGI (PC-3 prostate) was over 150 µg/mL, the GI50 (CAKI-1 renal) was 74.4 µg/mL (≈ 136 µM) and the TGI (CAKI-1 renal) was over 150 µg/mL. It also gave a GI50 (SK-OV-3 ovarian) of 54 µg/mL (≈ 99.1 µM) and a TGI (SK-OV-3 ovarian) of over 150 µg/mL.
`CCOC(=O)c1csc(NC(=O)C(C)N2CCCC2)n1` (stereo not given) showed a TGI (IGROV1 ovarian) of over 100 µM, a TGI (OVCAR-5 ovarian) of over 100 µM and a TGI (UO-31 renal) of over 100 µM. It also gave a TGI (DU-145 prostate) of over 100 µM, a TGI (SK-MEL-28 melanoma) of over 100 µM and a TGI (SNB-75 CNS) of over 100 µM. The TGI (SF-295 CNS) was over 100 µM, the TGI (PC-3 prostate) was over 100 µM and the TGI (CAKI-1 renal) was over 100 µM. For the same compound, the TGI (SK-OV-3 ovarian) was over 100 µM.
`COC(=O)C(Cc1cn(C(C)n2cc(CC(NC(C)=O)C(=O)OC)c3ccccc32)c2ccccc12)NC(C)=O` (stereo not given) gave a TGI (IGROV1 ovarian) of over 100 µM, a TGI (OVCAR-5 ovarian) of over 100 µM and a TGI (UO-31 renal) of over 100 µM. It also gave a TGI (DU-145 prostate) of over 100 µM, a TGI (SK-MEL-28 melanoma) of over 100 µM and a TGI (SNB-75 CNS) of 83.3 µM. The TGI (SF-295 CNS) was over 100 µM, the TGI (PC-3 prostate) was over 100 µM and the TGI (CAKI-1 renal) was over 100 µM. For the same compound, the TGI (SK-OV-3 ovarian) was over 100 µM.
